ChEMBL document CHEMBL4806968, “Hipk inhibitors and methods of use thereof” (2020)

Columns and labels:
[1] = target: Receptor-type tyrosine-protein kinase FLT3 (Homo sapiens) (UniProt P36888); test: Inhibition of FLT3 (unknown origin) at 0.5 uM relative to control
[2] = target: T1, Homeodomain-interacting protein kinase 4 (Homo sapiens, UniProt Q8NE63); test: Inhibition of HIPK4 (unknown origin)
T1 sequence (Q8NE63 whole entry): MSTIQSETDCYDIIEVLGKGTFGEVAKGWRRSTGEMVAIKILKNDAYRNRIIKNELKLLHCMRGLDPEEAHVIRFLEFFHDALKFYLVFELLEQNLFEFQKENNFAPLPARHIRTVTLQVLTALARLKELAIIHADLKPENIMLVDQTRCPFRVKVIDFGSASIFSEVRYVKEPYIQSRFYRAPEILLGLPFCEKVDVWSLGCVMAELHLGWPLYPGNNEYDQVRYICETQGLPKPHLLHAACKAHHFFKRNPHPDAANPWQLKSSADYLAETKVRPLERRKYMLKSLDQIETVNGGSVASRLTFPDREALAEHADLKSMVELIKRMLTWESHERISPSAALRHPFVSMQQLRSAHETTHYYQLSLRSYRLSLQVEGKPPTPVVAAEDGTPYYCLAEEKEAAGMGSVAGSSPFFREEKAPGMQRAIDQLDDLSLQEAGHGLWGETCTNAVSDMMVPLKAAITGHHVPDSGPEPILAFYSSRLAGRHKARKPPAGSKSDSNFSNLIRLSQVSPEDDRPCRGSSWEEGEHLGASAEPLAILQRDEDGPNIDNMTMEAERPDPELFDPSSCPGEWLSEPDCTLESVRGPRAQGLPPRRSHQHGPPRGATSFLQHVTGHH

[3] = target: Tyrosine-protein kinase Lck (Homo sapiens) (UniProt P06239); test: Inhibition of LCK (unknown origin) at 0.5 uM relative to control
Chain of Tyrosine-protein kinase Lck (Homo sapiens) (P06239 2-509 limits assumed): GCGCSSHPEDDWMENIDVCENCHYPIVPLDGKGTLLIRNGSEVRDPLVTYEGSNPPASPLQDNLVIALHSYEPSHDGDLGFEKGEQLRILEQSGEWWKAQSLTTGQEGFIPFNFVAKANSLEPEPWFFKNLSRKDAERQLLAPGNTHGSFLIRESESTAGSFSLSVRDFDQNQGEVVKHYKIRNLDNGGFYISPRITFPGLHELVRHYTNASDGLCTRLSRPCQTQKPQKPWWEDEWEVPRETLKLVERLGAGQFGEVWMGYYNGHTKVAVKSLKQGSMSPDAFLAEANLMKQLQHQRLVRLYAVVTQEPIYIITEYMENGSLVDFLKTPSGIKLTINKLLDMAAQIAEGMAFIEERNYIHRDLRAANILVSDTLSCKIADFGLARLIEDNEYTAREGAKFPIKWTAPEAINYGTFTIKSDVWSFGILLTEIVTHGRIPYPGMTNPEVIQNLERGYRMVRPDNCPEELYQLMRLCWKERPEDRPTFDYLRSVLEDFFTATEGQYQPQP

[4] = target: BDNF/NT-3 growth factors receptor (Homo sapiens) (UniProt Q16620); test: Inhibition of TRKB (unknown origin) at 0.5 uM relative to control
Chain of BDNF/NT-3 growth factors receptor (Homo sapiens) (Q16620 32-822 limits assumed): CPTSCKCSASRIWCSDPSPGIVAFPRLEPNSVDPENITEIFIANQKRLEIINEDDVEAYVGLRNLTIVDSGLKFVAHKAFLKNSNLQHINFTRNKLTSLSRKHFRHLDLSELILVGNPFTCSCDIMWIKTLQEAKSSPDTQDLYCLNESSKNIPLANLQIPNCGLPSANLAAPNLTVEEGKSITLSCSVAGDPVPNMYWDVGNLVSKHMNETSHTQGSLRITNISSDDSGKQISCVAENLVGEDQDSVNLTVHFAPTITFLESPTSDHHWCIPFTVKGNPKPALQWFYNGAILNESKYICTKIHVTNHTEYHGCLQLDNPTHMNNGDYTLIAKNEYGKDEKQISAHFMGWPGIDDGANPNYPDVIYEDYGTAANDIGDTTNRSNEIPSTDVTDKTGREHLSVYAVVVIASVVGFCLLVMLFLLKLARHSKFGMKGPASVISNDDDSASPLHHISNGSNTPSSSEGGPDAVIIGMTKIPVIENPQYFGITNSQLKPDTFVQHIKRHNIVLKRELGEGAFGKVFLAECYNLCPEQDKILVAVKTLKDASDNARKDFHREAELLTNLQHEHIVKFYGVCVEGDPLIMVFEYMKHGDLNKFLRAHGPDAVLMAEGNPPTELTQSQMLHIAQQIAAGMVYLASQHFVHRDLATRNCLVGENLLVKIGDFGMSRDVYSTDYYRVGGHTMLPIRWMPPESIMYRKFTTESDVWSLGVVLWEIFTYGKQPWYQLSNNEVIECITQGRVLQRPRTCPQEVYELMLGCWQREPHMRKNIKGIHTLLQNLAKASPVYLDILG

[5] = target: T2, Ephrin type-B receptor 2 (Homo sapiens) (UniProt P29323); test: Inhibition of EPHB2 (unknown origin) at 0.5 uM relative to control
T2 sequence (whole entry): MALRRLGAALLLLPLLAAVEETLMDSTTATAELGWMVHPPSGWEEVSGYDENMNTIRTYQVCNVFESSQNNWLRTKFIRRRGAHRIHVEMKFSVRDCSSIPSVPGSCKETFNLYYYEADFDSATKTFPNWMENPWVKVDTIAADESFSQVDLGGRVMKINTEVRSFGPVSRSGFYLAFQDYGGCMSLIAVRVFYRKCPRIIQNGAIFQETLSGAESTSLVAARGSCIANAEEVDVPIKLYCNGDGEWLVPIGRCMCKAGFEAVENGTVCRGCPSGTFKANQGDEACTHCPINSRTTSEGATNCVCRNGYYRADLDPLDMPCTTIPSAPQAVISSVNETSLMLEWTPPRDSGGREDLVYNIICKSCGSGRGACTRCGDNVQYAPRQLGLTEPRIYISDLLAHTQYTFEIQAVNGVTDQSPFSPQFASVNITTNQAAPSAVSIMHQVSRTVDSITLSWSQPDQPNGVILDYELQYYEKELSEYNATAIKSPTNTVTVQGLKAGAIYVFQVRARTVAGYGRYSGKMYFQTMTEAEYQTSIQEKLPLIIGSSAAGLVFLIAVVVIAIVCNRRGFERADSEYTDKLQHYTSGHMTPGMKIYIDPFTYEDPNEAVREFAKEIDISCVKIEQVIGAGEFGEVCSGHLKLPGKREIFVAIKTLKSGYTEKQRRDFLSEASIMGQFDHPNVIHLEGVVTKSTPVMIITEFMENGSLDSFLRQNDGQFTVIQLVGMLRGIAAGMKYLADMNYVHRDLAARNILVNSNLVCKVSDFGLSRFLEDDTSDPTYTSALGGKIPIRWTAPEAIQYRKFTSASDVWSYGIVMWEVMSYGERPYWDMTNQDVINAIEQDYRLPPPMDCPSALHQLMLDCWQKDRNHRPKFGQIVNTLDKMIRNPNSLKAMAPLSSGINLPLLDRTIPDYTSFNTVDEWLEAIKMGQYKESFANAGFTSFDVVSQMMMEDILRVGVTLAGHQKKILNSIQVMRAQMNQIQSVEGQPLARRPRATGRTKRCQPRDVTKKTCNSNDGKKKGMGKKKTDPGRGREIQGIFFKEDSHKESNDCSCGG

[6] = target: Mast/stem cell growth factor receptor Kit (Homo sapiens) (UniProt P10721); test: Inhibition of KIT (unknown origin) at 0.5 uM relative to control
Chain of Mast/stem cell growth factor receptor Kit (Homo sapiens) (P10721 whole entry): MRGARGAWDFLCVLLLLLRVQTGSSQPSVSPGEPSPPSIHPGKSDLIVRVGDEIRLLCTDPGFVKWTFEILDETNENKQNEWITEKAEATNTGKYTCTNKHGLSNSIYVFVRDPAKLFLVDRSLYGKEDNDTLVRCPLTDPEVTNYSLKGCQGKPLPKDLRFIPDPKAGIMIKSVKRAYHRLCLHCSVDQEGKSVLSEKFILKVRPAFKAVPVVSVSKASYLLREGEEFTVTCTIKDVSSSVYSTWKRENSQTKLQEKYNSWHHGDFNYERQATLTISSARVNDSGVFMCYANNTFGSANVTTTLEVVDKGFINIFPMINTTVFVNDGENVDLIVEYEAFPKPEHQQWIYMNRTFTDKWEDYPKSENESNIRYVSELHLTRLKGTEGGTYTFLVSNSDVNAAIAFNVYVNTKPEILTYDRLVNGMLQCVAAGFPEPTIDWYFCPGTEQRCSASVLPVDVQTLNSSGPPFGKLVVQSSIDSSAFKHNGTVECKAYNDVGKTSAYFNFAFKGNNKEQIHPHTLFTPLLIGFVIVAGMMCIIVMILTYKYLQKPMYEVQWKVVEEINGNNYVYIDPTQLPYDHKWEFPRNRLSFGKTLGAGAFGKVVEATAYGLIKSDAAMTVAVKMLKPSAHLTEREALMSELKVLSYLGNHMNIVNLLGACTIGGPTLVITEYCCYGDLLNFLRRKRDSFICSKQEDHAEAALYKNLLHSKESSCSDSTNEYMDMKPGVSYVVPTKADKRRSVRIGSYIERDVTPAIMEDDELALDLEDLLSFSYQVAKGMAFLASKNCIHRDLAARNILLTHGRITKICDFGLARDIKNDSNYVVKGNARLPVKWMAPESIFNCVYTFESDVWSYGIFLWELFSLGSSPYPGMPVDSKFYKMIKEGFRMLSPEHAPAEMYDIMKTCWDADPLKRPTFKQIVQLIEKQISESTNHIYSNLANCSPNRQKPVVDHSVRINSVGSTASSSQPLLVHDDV

[7] = target: NT-3 growth factor receptor (Homo sapiens) (UniProt Q16288); test: Inhibition of TRKC (unknown origin) at 0.5 uM relative to control
Chain of NT-3 growth factor receptor (Homo sapiens) (Q16288 32-839 limits assumed): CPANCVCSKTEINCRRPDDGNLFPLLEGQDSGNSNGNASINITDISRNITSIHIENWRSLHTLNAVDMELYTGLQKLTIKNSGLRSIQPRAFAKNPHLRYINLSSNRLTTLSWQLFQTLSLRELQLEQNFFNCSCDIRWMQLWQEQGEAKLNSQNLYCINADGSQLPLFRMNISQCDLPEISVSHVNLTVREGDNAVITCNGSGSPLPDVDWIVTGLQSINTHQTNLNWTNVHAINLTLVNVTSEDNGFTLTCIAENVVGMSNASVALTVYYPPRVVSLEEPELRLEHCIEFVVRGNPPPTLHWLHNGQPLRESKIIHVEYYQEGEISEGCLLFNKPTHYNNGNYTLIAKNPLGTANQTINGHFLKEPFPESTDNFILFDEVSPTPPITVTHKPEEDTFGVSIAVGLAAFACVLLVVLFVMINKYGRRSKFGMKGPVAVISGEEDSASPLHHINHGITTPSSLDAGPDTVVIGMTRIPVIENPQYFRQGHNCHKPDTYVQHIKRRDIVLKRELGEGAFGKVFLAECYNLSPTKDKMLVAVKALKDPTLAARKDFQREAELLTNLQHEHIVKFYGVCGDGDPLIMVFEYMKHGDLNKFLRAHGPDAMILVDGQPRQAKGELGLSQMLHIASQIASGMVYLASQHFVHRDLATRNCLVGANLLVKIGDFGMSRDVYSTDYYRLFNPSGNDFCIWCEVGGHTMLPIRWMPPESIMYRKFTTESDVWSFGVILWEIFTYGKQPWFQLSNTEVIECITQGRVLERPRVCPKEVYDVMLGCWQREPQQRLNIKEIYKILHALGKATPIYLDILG

[8] = target: Protein-tyrosine kinase 6 (Homo sapiens) (UniProt Q13882); test: Inhibition of BRK (unknown origin) at 0.5 uM relative to control
Chain of Protein-tyrosine kinase 6 (Homo sapiens) (Q13882 whole entry, looked up): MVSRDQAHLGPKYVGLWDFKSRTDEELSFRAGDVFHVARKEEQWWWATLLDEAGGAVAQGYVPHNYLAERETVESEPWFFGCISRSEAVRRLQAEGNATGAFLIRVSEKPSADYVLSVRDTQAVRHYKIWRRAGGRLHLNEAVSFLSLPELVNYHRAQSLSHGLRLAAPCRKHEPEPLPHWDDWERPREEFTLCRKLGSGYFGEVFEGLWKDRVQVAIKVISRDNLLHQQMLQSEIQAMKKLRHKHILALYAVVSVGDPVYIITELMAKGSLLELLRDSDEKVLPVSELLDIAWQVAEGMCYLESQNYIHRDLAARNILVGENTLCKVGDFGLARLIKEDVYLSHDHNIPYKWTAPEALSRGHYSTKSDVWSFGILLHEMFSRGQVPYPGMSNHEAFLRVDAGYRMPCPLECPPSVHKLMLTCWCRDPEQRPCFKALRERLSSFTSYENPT

Chain of Receptor-type tyrosine-protein kinase FLT3 (Homo sapiens) (P36888 whole entry): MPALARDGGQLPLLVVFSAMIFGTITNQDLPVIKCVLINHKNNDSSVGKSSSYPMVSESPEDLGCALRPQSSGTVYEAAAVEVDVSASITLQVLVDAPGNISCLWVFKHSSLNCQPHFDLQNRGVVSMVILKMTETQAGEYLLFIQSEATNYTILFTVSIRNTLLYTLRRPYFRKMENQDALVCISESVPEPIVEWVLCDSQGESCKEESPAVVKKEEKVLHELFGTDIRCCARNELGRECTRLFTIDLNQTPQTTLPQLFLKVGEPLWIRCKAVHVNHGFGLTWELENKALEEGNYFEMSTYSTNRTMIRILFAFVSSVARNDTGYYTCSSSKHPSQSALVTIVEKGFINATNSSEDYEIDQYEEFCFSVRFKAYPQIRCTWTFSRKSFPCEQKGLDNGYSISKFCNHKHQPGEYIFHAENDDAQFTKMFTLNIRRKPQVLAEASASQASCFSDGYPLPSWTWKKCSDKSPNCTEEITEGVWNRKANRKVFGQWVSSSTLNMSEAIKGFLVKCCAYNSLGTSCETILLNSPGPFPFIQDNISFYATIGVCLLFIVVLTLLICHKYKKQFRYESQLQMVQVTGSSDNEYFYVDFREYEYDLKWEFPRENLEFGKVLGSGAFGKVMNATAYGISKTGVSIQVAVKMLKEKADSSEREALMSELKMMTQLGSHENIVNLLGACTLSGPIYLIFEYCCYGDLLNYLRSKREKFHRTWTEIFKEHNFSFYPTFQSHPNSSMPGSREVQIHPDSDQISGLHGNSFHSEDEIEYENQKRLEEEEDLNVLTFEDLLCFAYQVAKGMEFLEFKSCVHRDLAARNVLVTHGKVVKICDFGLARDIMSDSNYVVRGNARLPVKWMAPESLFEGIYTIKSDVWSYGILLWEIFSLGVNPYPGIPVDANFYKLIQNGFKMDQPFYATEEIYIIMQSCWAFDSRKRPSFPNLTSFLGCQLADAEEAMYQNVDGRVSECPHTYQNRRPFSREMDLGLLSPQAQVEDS

Row | inhibition [1] [%] | IC50 [2] [nM] | inhibition [3] [%] | inhibition [4] [%] | inhibition [5] [%] | inhibition [6] [%] | inhibition [7] [%] | inhibition [8] [%] | Compound
1 | 27 | 32 | – | – | – | – | – | – | CSc1nc(C(=O)Nc2ccc(Oc3cc4cnn(C)c4cc3Br)cc2)c(-c2ccc(F)cc2)o1
2 | – | 3.3 | 77 | 40 | 48 | 40 | 51 | 80 | CNC(=O)c1cc(Oc2ccc(NC(=O)c3nc(SC)oc3-c3ccc(F)cc3)cc2)ccn1
3 | 44 | 49 | – | 40 | 35 | 65 | 55 | 32 | CNC(=O)c1cc(Oc2ccc(NC(=O)c3n[nH]nc3-c3ccc(F)cc3)cc2)ccn1
4 | 36 | 2.8 | 71 | 36 | 39 | – | 46 | 77 | CNC(=O)c1cc(Oc2ccc(NC(=O)c3nc(SC)oc3-c3ccc(F)cc3)cc2F)ccn1
5 | – | 5.2 | 49 | 71 | 51 | 47 | 76 | 53 | CNC(=O)c1cc(Oc2ccc(NC(=O)c3nc(NC)sc3-c3ccc(F)cc3)cc2)ccn1
6 | 39 | 9.6 | 58 | – | – | 33 | – | 87 | CNC(=O)c1cc(Oc2ccc(NC(=O)c3nc(C(F)(F)F)sc3-c3ccc(F)cc3)cc2)ccn1
7 | 50 | 23 | 28 | 51 | – | 27 | 57 | 44 | CNC(=O)c1cc(Oc2ccc(NC(=O)c3nc(SC)n(CCN(C)C)c3-c3ccc(F)cc3)cc2)ccn1
8 | – | 19 | 84 | 83 | 93 | – | 90 | 90 | CNC(=O)c1cc(Oc2ccc(NC(=O)c3nc(SC)[nH]c3-c3ccc(F)cc3)cc2)ccn1
9 | 56 | 5.1 | – | – | 27 | 25 | 25 | 34 | CNC(=O)c1cc(Oc2ccc(NC(=O)c3nc(S(C)(=O)=O)sc3-c3ccc(F)cc3)cc2)ccn1
